# Literature values, collected in article PMC7721897, “Metabolism and pharmacokinetics of a novel polyphenol fatty acid ester phloridzin docosahexaenoate in Balb/c female mice” (Scientific Reports, 2020).
# Tested on: human plasma proteins
# Conditions: ref Boulton et al.; cited from earlier work
smiles,measurement,value
O=c1c(O)c(-c2ccc(O)c(O)c2)oc2cc(O)cc(O)c12 [quercetin],bound to human plasma proteins,99.1%
same,freely available in the plasma,0.9%
